According to paper PMC13366330 (Acta Pharmaceutica Sinica. B, 2025):

Assays:
TAMs in tumor tissue = assay: M2 polarization of TAMs in tumor tissue, flow cytometry; type: in vivo, C57 mice; settings: 10 mg/kg, intraperitoneal
[1] = Body and organ weights, organ H&E in the antitumor experiment; type: in vivo, C57 mice; settings: 100 mg/kg, intraperitoneal

## C[C@H](NC(=O)c1c(N)nn2cccnc12)c1cc2cccc(C#Cc3cnn(C)c3)c2c(=O)n1-c1ccccc1 [IPI-549]
TAMs in tumor tissue
  percentage of M2 polarization in TAMs: 15.40%

## CN(C)/N=N/c1[nH]cnc1C(N)=O [dacarbazine]
[1]
  liver H&E finding: coagulative necrosis
  spleen weight: significant decrease
